Literature values in US7354906B2, “Composition of anti-HIV drugs and anti-cortisol compounds and method for decreasing the side effects of anti-HIV drugs in a human” (Samaritan Pharmaceuticals, Inc., priority 1999, dated 2008).

Experiments:
[1] = hydrochloride salt
[2] = AZT recipients
[3] = 50 mg per day for 6 months, age advanced humans
[4] = human, 20 mg/kg/day, four weeks, no increase in caloric intake

Structure (SMILES): CCN(CC)CCOC(=O)c1ccc(N)cc1.Cl [Procaine hydrochloride, 2-diethylaminoethyl p-aminobenzoate hydrochloride]
- solubility [1]: soluble in water and alcohol, but much less soluble in organic solvents

Structure (SMILES): Cc1cn([C@H]2C[C@H](N=[N+]=[N-])[C@@H](CO)O2)c(=O)[nH]c1=O [AZT, 3′-azido-3′-deoxythymidine]
- recipients who develop anemia [2]: 24%

Structure (SMILES): C[C@]12CC[C@H](O)CC1=CC[C@@H]1[C@@H]2CC[C@]2(C)C(=O)CC[C@@H]12 [DHEA, Dehydroepiandrosterone]
- bioavailable IGF-1 [3]: induced an increase
- safety of DHEA dosages (dosages as high as 1.6 gm/day): safe and without side effects
- mean serum total cholesterol levels (men, 1600 mg/day for 28 days): fall
- mean percent body fat decrease (men, 1600 mg/day for 28 days, no change in weight): 31%

Structure (SMILES): CC(C)Oc1ccc2c(=O)c(-c3ccccc3)coc2c1 [Ipriflavone, 7-isoproxy-isoflavone]
- increase in body weight [4]: about 5 pounds
